Measured values from patent publication US9127303B2, “Method for detection of beta-D-glucuronidase activity in a sample” (Biosynth AG, priority 2011, dated 2015).

What was measured:
Acinetobacter baumanii = test: Detection of microbial beta-D-glucuronidase in broth cultures in test tubes; format: cell-based; set-up: key: positive (pink colour); negative (yellow colour); conditions: 1 strain, NB, 0.1 mM, 37° C., 16 hours
Description: (§1) Resorufin-beta-D-glucuronic acid or Resorufin-beta-D-glucuronic acid methyl ester was added to test tubes containing 3 ml of Nutrient Broth (NB: 5 g/l peptone, 5 g/l NaCl, 2 g/l yeast extract, 1 g/l beef extract, pH 7.4) or Tryptone Bile Broth (TBB: 20 g/l tryptone, 1.5 g/l bile salts No. 3) at a concentration of 0.1 mM. Tubes were inoculated with cultures pregrown over night on NB and incubated at 37° C. for 16 hours. Tubes were scored visually for beta-D-glucuronidase activity as positive (pink colour) or negative (yellow colour). Both substrates gave the same results for all strains tested (Table 1), showing that the Resorufin-beta-D-glucuronic acid methyl ester can be used in place of the Resorufin-beta-D-glucuronic acid for detection of E. coli.

Aeromonas hydrophila = test: as above; format: cell-based; set-up: key: positive (pink colour); negative (yellow colour); conditions: 1 strain, TBB, 0.1 mM, 37° C., 16 hours
Description: as §1

Bacillus cereus = test: as above; format: cell-based; set-up: key: positive (pink colour); negative (yellow colour); conditions: 1 strain, NB, 0.1 mM, 37° C., 16 hours
Description: as §1

Citrobacter freundii = test: as above; format: cell-based; set-up: key: positive (pink colour); negative (yellow colour); conditions: 1 strain, TBB, 0.1 mM, 37° C., 16 hours
Description: as §1

Enterobacter aerogenes = test: as above; format: cell-based; set-up: key: positive (pink colour); negative (yellow colour); conditions: 1 strain, TBB, 0.1 mM, 37° C., 16 hours
Description: as §1

Enterobacter cloacae = test: as above; format: cell-based; set-up: key: positive (pink colour); negative (yellow colour); conditions: 1 strain, NB, 0.1 mM, 37° C., 16 hours
Description: as §1

Enterococcus faecalis = test: as above; format: cell-based; set-up: key: positive (pink colour); negative (yellow colour); conditions: 1 strain, TBB, 0.1 mM, 37° C., 16 hours
Description: as §1

Escherichia coli O157:H7 = test: as above; format: cell-based; set-up: key: positive (pink colour); negative (yellow colour); conditions: Escherichia coli O157:H7, 2 strains, TBB, 0.1 mM, 37° C., 16 hours
Description: as §1

Escherichia coli = test: as above; format: cell-based; set-up: key: positive (pink colour); negative (yellow colour); conditions: 19 strains, TBB, 0.1 mM, 37° C., 16 hours
Description: as §1

Hafnia alvei = test: as above; format: cell-based; set-up: key: positive (pink colour); negative (yellow colour); conditions: 1 strain, NB, 0.1 mM, 37° C., 16 hours
Description: as §1

Klebsiella pneumoniae = test: as above; format: cell-based; set-up: key: positive (pink colour); negative (yellow colour); conditions: 1 strain, TBB, 0.1 mM, 37° C., 16 hours
Description: as §1

Proteus vulgaris = test: as above; format: cell-based; set-up: key: positive (pink colour); negative (yellow colour); conditions: 1 strain, NB, 0.1 mM, 37° C., 16 hours
Description: as §1

Pseudomonas aeruginosa = test: as above; format: cell-based; set-up: key: positive (pink colour); negative (yellow colour); conditions: 1 strain, TBB, 0.1 mM, 37° C., 16 hours
Description: as §1

Salmonella Enteritidis = test: as above; format: cell-based; set-up: key: positive (pink colour); negative (yellow colour); conditions: 1 strain, TBB, 0.1 mM, 37° C., 16 hours
Description: as §1

Salmonella Typhimurium = test: as above; format: cell-based; set-up: key: positive (pink colour); negative (yellow colour); conditions: 1 strain, NB, 0.1 mM, 37° C., 16 hours
Description: as §1

Serratia marcescens = test: as above; format: cell-based; set-up: key: positive (pink colour); negative (yellow colour); conditions: 1 strain, TBB, 0.1 mM, 37° C., 16 hours
Description: as §1

Staphylococcus aureus = test: as above; format: cell-based; set-up: key: positive (pink colour); negative (yellow colour); conditions: 1 strain, NB, 0.1 mM, 37° C., 16 hours
Description: as §1

[1] = test system: Staphylococcus haemolyticus; test: as above; format: cell-based; set-up: key: positive (pink colour); negative (yellow colour); conditions: 1 strain, NB, 0.1 mM, 37° C., 16 hours
Description: as §1

Vibrio parahaemolyticus = test: as above; format: cell-based; set-up: key: positive (pink colour); negative (yellow colour); conditions: 1 strain, NB, 0.1 mM, 37° C., 16 hours
Description: as §1

Yersinia enterocolitica = test: as above; format: cell-based; set-up: key: positive (pink colour); negative (yellow colour); conditions: 1 strain, NB, 0.1 mM, 37° C., 16 hours
Description: as §1

[2] = test system: beta-D-glucuronidase positive strains (Escherichia coli); test: Detection of microbial beta-D-glucuronidase activity in broth cultures in microtiter plates; format: cell-based; conditions: NB, 0.1 mM, 37° C., 20 hours; for Fluorescence (excitation 570 nm, emission 600 nm) over time: about 10 cfu
Description: (§2) Fluorescence in arbitrary units (RFU, relative fluorescence units) is plotted vs. time (h).
(§3) Wells of a microtiter plate were filled with Nutrient Broth (NB: 5 g/l peptone, 5 g/l NaCl, 2 g/l yeast extract, 1 g/l beef extract, pH 7.4) containing Resorufin-beta-D-glucuronic acid or Resorufin-beta-D-glucuronic acid methyl ester at concentrations of 0.1 mM. The wells were inoculated with about 10 cfu of cultures pregrown over night on NB and incubated at 37° C. for 20 hours. Fluorescence was measured every 20 minutes at an excitation wavelength of 570 nm and an emission wavelength of 600 nm (FIG. 1).

[3] = test system: beta-D-glucuronidase negative strains; test: as above; format: cell-based, Citrobacter freundii, Salmonella enteritidis; conditions: NB, 0.1 mM, 37° C., 20 hours
Description: as §2, §3

[4] = target: beta-D-glucuronidase (type VII-A from E. coli) (Escherichia coli, UniProt P05804); test: Enzymatic assay with purified beta-D-glucuronidase; format: biochemical; conditions: 0.1 mM, pH 6.8, 37° C., 1 hour
Sequence of beta-D-glucuronidase (type VII-A from E. coli) (P05804 whole entry): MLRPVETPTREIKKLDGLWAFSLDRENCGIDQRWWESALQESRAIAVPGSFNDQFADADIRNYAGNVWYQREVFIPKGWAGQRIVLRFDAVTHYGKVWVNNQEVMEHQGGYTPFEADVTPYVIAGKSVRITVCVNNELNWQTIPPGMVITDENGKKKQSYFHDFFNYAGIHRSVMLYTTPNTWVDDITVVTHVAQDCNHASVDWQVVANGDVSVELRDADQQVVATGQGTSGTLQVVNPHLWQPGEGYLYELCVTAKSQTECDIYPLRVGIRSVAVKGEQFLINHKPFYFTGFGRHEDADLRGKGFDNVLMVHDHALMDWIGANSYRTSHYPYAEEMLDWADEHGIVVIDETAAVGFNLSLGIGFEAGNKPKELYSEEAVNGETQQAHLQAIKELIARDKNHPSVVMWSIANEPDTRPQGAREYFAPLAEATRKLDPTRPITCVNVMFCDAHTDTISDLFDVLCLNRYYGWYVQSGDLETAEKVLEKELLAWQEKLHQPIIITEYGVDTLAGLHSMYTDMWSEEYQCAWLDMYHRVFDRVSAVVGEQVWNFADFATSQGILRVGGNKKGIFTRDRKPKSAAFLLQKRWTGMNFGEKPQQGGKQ
Description: (§4) Resorufin-beta-D-glucuronic acid or Resorufin-beta-D-glucuronic acid methyl ester was incubated in presence of glucuronidase, esterase, both enzymes or without enzyme. Measurements were done in microtiter plates at 37° C. in a Spectramax M5 platereader (λex=570 nm, λem=600 nm). Fluorescence in arbitrary units (RFU, relative fluorescence units) is plotted vs. time (min).
(§5) Wells of a microtiter plate were filled with buffer (35 mM potassium phosphate, 4.7 mg/ml bovine serum albumin, pH 6.8) containing Resorufin-beta-D-glucuronic acid or Resorufin-beta-D-glucuronic acid methyl ester at concentrations of 0.1 mM. To the wells were added either a) 0.3 unit beta-D-glucuronidase (type VII-A from E. coli) or b) 10 units esterase (from porcine liver) or c) 0.3 unit beta-D-glucuronidase and 10 units esterase or d) no enzyme. The microtiter plate was incubated at 37° C. for 1 hour. Fluorescence was measured every 1.5 minutes at an excitation wavelength of 570 nm and an emission wavelength of 600 nm (FIG. 2).

[5] = test system: esterase (from porcine liver); test: Enzymatic assay with esterase only; format: biochemical; conditions: 10 units esterase only, 0.1 mM, pH 6.8, 37° C., 1 hour
Description: as §4, §5

E. coli culture = test: Detection of microbial beta-D-glucuronidase in preincubated medium; format: cell-based; conditions: NB with 0.2 mM, preincubated 21 h, 3.5 h, 0 h at 37° C., E. coli about 10^8 cfu/ml
Description: The media with the Resorufin-beta-D-glucuronic acid methyl ester were preincubated for different time periods. Measurements were done in microtiter plates at 37° C. in a Spectramax M5 platereader (λex=570 nm, λem=600 nm). Fluorescence in arbitrary units (RFU, relative fluorescence units) is plotted vs. time (min).
(§6) Wells of a microtiter plate were filled with 100 μl Nutrient Broth (NB: 5 g/l peptone, 5 g/l NaCl, 2 g/l yeast extract, 1 g/l beef extract, pH 7.4) containing Resorufin-beta-D-glucuronic acid or Resorufin-beta-D-glucuronic acid methyl ester at concentrations of 0.2 mM. The wells were incubated for different times (21 h, 3.5 h, 0 h) at 37° C. After incubation, 100 μl of an E. coli culture pregrown over night on NB was added (about 10^8 cfu/ml). Fluorescence was measured every 1.5 minutes at an excitation wavelength of 570 nm and an emission wavelength of 600 nm (FIG. 3). The longer the preincubation time of the medium, the more Resorufin-beta-D-glucuronic acid originated from the Resorufin-beta-D-glucuronic acid methyl ester through hydrolysis.

[6] = Hydrolysis of the methyl ester in Nutrient Broth medium; format: physicochemical; conditions: pH 7.4, 37° C.
Description: as §6

[7] = 0.3 unit beta-D-glucuronidase and 10 units esterase
[8] = 0.3 unit beta-D-glucuronidase without esterase

| SMILES | Result, beta-D-glucuronidase activity scored visually (Acinetobacter baumanii) | Result, beta-D-glucuronidase activity scored visually (Aeromonas hydrophila) | Result, beta-D-glucuronidase activity scored visually (Bacillus cereus) | Result, beta-D-glucuronidase activity scored visually (Citrobacter freundii) | Result, beta-D-glucuronidase activity scored visually (Enterobacter aerogenes) | Result, beta-D-glucuronidase activity scored visually (Enterobacter cloacae) | Result, beta-D-glucuronidase activity scored visually (Enterococcus faecalis) | Result, beta-D-glucuronidase activity scored visually (Escherichia coli O157:H7) | Result, beta-D-glucuronidase activity scored visually (Escherichia coli) | Result, beta-D-glucuronidase activity scored visually (Hafnia alvei) | Result, beta-D-glucuronidase activity scored visually (Klebsiella pneumoniae) | Result, beta-D-glucuronidase activity scored visually (Proteus vulgaris) | Result, beta-D-glucuronidase activity scored visually (Pseudomonas aeruginosa) | Result, beta-D-glucuronidase activity scored visually (Salmonella Enteritidis) | Result, beta-D-glucuronidase activity scored visually (Salmonella Typhimurium) | Result, beta-D-glucuronidase activity scored visually (Serratia marcescens) | Result, beta-D-glucuronidase activity scored visually (Staphylococcus aureus) | Result, beta-D-glucuronidase activity scored visually [1] | Result, beta-D-glucuronidase activity scored visually (Vibrio parahaemolyticus) | Result, beta-D-glucuronidase activity scored visually (Yersinia enterocolitica) | also measured |
| --- | --- | --- | --- | --- | --- | --- | --- | --- | --- | --- | --- | --- | --- | --- | --- | --- | --- | --- | --- | --- | --- |
| O=C([O-])C1OC(Oc2ccc3nc4ccc(=O)cc-4oc3c2)C(O)C(O)C1O.[Na+] [Resorufin-beta-D-glucuronic acid, reference compound] | negative | negative | negative | negative | negative | negative | negative | negative | positive | negative | negative | negative | negative | negative | negative | negative | negative | negative | negative | negative | Fluorescence (excitation 570 nm, emission 600 nm) over time [2]: increase in fluorescence; Fluorescence (excitation 570 nm, emission 600 nm) over time [3]: only low background signal; Fluorescence (excitation 570 nm, emission 600 nm) over time [4, 7]: fast increase of fluorescence; Fluorescence (excitation 570 nm, emission 600 nm) over time [4, 8]: fast increase of fluorescence; Fluorescence (excitation 570 nm, emission 600 nm) over time [5]: low background signal |
| COC(=O)[C@H]1O[C@@H](Oc2ccc3nc4ccc(=O)cc-4oc3c2)[C@H](O)[C@@H](O)[C@@H]1O [Resorufin-beta-D-glucuronic acid methyl ester] | negative | negative | negative | negative | negative | negative | negative | negative | positive | negative | negative | negative | negative | negative | negative | negative | negative | negative | negative | negative | Speed of increase in fluorescence compared with Resorufin-beta-D-glucuronic acid [2]: a little slower; Fluorescence (excitation 570 nm, emission 600 nm) over time [2]: increase in fluorescence; Fluorescence (excitation 570 nm, emission 600 nm) over time [3]: only low background signal; Fluorescence (excitation 570 nm, emission 600 nm) over time [4, 7]: fast increase of fluorescence; Fluorescence (excitation 570 nm, emission 600 nm) over time [4, 8]: only a slow increase of fluorescence; Fluorescence (excitation 570 nm, emission 600 nm) over time [5]: low background signal; Fluorescence signal after adding E. coli culture, compared with Resorufin-beta-D-glucuronic acid medium (E. coli culture): gets closer to the signal from media originally containing the Resorufin-beta-D-glucuronic acid with longer preincubation time; Hydrolysis of the methyl ester to Resorufin-beta-D-glucuronic acid in medium [6]: surprisingly fast |
